Usually AC50 stands for the midpoint of the concentration-response curve, whichever way the signal moves.

Among the data in patent US20230365592A1 (Agios Pharmaceuticals, Inc., priority 2022, published 2023) are AC50 values, retold here.

The experiment concerns the target T1, human PAH with the R408W mutation (Homo sapiens, UniProt P00439, R408W).
T1 construct: expressed in transfected cells
T1 sequence (P00439 1-452 R408W): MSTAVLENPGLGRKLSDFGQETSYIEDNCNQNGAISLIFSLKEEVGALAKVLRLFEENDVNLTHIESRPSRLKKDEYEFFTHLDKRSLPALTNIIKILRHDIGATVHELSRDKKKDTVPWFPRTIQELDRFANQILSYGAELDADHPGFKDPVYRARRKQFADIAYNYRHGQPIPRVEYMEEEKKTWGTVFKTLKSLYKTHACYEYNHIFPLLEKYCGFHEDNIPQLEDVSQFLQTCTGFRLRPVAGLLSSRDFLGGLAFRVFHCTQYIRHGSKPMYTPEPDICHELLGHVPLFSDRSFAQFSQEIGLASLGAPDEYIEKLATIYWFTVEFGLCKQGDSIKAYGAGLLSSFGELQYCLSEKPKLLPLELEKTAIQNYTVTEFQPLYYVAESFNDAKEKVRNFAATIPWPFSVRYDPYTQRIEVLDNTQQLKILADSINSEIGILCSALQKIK
As to the kind of experiment: Cell Based Phenylalanine Flux Assay.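 Also: after compound treatment, cells received sepiapterin plus isotope-labelled Phenylalanine for 4 hours, then labelled Tyrosine in the medium was quantified, 10-point 2-fold dilution series run in duplicate.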 The note with it: A375 cells expressing human R408W PAH; 24 hrs compound incubation; 13C-Tyrosine by LC-MS; average where tested multiple times; read-out: AC50.

As for `O=C(c1nnc(C2CC2)o1)N1CCc2[nH]cnc2[C@@H]1c1cc2cccc(C(F)F)n2n1` [Example 1391, (R)-(5-cyclopropyl-1,3,4-oxadiazol-2-yl)(4-(7-(difluoromethyl)pyrazolo[1,5-a]pyridin-2-yl)-6,7-dihydro-1H-imidazo[4,5-c]pyridin-5(4H)-yl)methanone], the half-maximal activity concentration (AC50) lay in the range of 1 to 5 µM.

`O=C(c1nnc(-c2ncccn2)o1)N1CCc2[nH]cnc2[C@@H]1c1cc2cccc(Cl)n2n1` [Example 1392, (R)-(4-(7-chloropyrazolo[1,5-a]pyridin-2-yl)-6,7-dihydro-1H-imidazo[4,5-c]pyridin-5(4H)-yl)(5-(pyrimidin-2-yl)-1,3,4-oxadiazol-2-yl)methanone]: the AC50 fell in the range of 1 to 5 µM.

As to `O=C(c1nnc(-c2ncccn2)o1)N1CCc2[nH]cnc2[C@H]1c1cc2cccc(Cl)n2n1` [Example 1393, (S)-(4-(7-chloropyrazolo[1,5-a]pyridin-2-yl)-6,7-dihydro-1H-imidazo[4,5-c]pyridin-5(4H)-yl)(5-(pyrimidin-2-yl)-1,3,4-oxadiazol-2-yl)methanone], the AC50 was less than 0.5 µM.

For the molecule `Cc1ncccc1-c1nnc(C(=O)N2CCc3[nH]cnc3[C@H]2c2cc3c(C(F)F)cccn3n2)o1` [Example 1394, (S)-(4-(4-(difluoromethyl)pyrazolo[1,5-a]pyridin-2-yl)-6,7-dihydro-1H-imidazo[4,5-c]pyridin-5(4H)-yl)(5-(2-methylpyridin-3-yl)-1,3,4-oxadiazol-2-yl)methanone], the AC50 was less than 0.5 µM.

On to `Cc1ncccc1-c1nnc(C(=O)N2CCc3[nH]cnc3[C@@H]2c2cc3c(C(F)F)cccn3n2)o1` [Example 1395, (R)-(4-(4-(difluoromethyl)pyrazolo[1,5-a]pyridin-2-yl)-6,7-dihydro-1H-imidazo[4,5-c]pyridin-5(4H)-yl)(5-(2-methylpyridin-3-yl)-1,3,4-oxadiazol-2-yl)methanone], for which the AC50 is more than 5 µM.

For the molecule `Cc1cccc(-c2nnc(C(=O)N3CCc4[nH]cnc4[C@H]3c3cc4cccc(Cl)n4n3)o2)n1` [Example 1396, (S)-(4-(7-chloropyrazolo[1,5-a]pyridin-2-yl)-6,7-dihydro-1H-imidazo[4,5-c]pyridin-5(4H)-yl)(5-(6-methylpyridin-2-yl)-1,3,4-oxadiazol-2-yl)methanone], the AC50 is less than 0.5 µM.

Turning to `Cc1cccc(-c2nnc(C(=O)N3CCc4[nH]cnc4[C@@H]3c3cc4cccc(Cl)n4n3)o2)n1` [Example 1397, (R)-(4-(7-chloropyrazolo[1,5-a]pyridin-2-yl)-6,7-dihydro-1H-imidazo[4,5-c]pyridin-5(4H)-yl)(5-(6-methylpyridin-2-yl)-1,3,4-oxadiazol-2-yl)methanone], the AC50 was in the range of 1 to 5 µM.

`Cc1cccc(-c2nnc(C(=O)N3CCc4[nH]cnc4[C@@H]3c3cc4cccc(C)n4n3)o2)n1` [Example 1399, (R)-(4-(7-methylpyrazolo[1,5-a]pyridin-2-yl)-6,7-dihydro-1H-imidazo[4,5-c]pyridin-5(4H)-yl)(5-(6-methylpyridin-2-yl)-1,3,4-oxadiazol-2-yl)methanone]: the AC50 fell in the range of 1 to 5 µM.

For `Cc1cccc(-c2nnc(C(=O)N3CCc4[nH]cnc4[C@H]3c3cc4cccc(C(F)(F)F)n4n3)o2)n1` [Example 1400, (S)-(5-(6-methylpyridin-2-yl)-1,3,4-oxadiazol-2-yl)(4-(7-(trifluoromethyl)pyrazolo[1,5-a]pyridin-2-yl)-6,7-dihydro-1H-imidazo[4,5-c]pyridin-5(4H)-yl)methanone], the AC50 was less than 0.5 µM.

In the case of `Cc1cccc(-c2nnc(C(=O)N3CCc4[nH]cnc4[C@@H]3c3cc4cccc(C(F)(F)F)n4n3)o2)n1` [Example 1401, (R)-(5-(6-methylpyridin-2-yl)-1,3,4-oxadiazol-2-yl)(4-(7-(trifluoromethyl)pyrazolo[1,5-a]pyridin-2-yl)-6,7-dihydro-1H-imidazo[4,5-c]pyridin-5(4H)-yl)methanone], the AC50 was 1 to 5 µM.

Regarding `Cn1nc(C(F)F)cc1C(=O)N1CCc2[nH]cnc2[C@H]1c1cc2cccc(C(F)F)n2n1` [Example 1402, (S)-(3-(difluoromethyl)-1-methyl-1H-pyrazol-5-yl)(4-(7-(difluoromethyl)pyrazolo[1,5-a]pyridin-2-yl)-6,7-dihydro-1H-imidazo[4,5-c]pyridin-5(4H)-yl)methanone], the AC50 was in the range of 0.5 to 1 µM.

As for `O=C(c1nnc(-c2ccn(C(F)F)n2)o1)N1CCc2[nH]cnc2[C@@H]1c1cc2cccc(F)n2n1` [Example 1404, (R)-(5-(1-(difluoromethyl)-1H-pyrazol-3-yl)-1,3,4-oxadiazol-2-yl)(4-(7-fluoropyrazolo[1,5-a]pyridin-2-yl)-6,7-dihydro-1H-imidazo[4,5-c]pyridin-5(4H)-yl)methanone], the AC50 is 1 to 5 µM.

For `O=C(c1nnc(-c2ccn(C(F)F)n2)o1)N1CCc2[nH]cnc2[C@H]1c1cc2cccc(F)n2n1` [Example 1405, (S)-(5-(1-(difluoromethyl)-1H-pyrazol-3-yl)-1,3,4-oxadiazol-2-yl)(4-(7-fluoropyrazolo[1,5-a]pyridin-2-yl)-6,7-dihydro-1H-imidazo[4,5-c]pyridin-5(4H)-yl)methanone], the AC50 is less than 0.5 µM.

Consider `Cn1cc(-c2nnc(C(=O)N3CCc4[nH]cnc4[C@@H]3c3cc4cccc(C(F)F)n4n3)o2)cn1` [Example 1407, (R)-(4-(7-(difluoromethyl)pyrazolo[1,5-a]pyridin-2-yl)-6,7-dihydro-1H-imidazo[4,5-c]pyridin-5(4H)-yl)(5-(1-methyl-1H-pyrazol-4-yl)-1,3,4-oxadiazol-2-yl)methanone], for which the AC50 was more than 5 µM.

Regarding `CC(C)(C)c1nnc(C(=O)N2CCc3[nH]cnc3[C@@H]2c2cc3c(C(F)F)cccn3n2)o1` [Example 1408, (R)-(5-(tert-butyl)-1,3,4-oxadiazol-2-yl)(4-(4-(difluoromethyl)pyrazolo[1,5-a]pyridin-2-yl)-6,7-dihydro-1H-imidazo[4,5-c]pyridin-5(4H)-yl)methanone], the AC50 was in the range of 1 to 5 µM.

Regarding `CC(C)(C)c1nnc(C(=O)N2CCc3[nH]cnc3[C@H]2c2cc3c(C(F)F)cccn3n2)o1` [Example 1409, (S)-(5-(tert-butyl)-1,3,4-oxadiazol-2-yl)(4-(4-(difluoromethyl)pyrazolo[1,5-a]pyridin-2-yl)-6,7-dihydro-1H-imidazo[4,5-c]pyridin-5(4H)-yl)methanone], the AC50 is less than 0.5 µM.

With `O=C(c1nnc(-c2ncccn2)o1)N1CCc2[nH]cnc2[C@@H]1c1cc2c(Cl)cccn2n1` [Example 1410, (R)-(4-(4-chloropyrazolo[1,5-a]pyridin-2-yl)-6,7-dihydro-1H-imidazo[4,5-c]pyridin-5(4H)-yl)(5-(pyrimidin-2-yl)-1,3,4-oxadiazol-2-yl)methanone], the AC50 was in the range of 1 to 5 µM.

In the case of `O=C(c1nnc(-c2ncccn2)o1)N1CCc2[nH]cnc2[C@H]1c1cc2c(Cl)cccn2n1` [Example 1411, (S)-(4-(4-chloropyrazolo[1,5-a]pyridin-2-yl)-6,7-dihydro-1H-imidazo[4,5-c]pyridin-5(4H)-yl)(5-(pyrimidin-2-yl)-1,3,4-oxadiazol-2-yl)methanone], the AC50 was less than 0.5 µM.

With `O=C(c1nnc(-c2ncccn2)o1)N1CCc2[nH]cnc2[C@H]1c1cc2c(C(F)F)cccn2n1` [Example 1413, (S)-(4-(4-(difluoromethyl)pyrazolo[1,5-a]pyridin-2-yl)-6,7-dihydro-1H-imidazo[4,5-c]pyridin-5(4H)-yl)(5-(pyrimidin-2-yl)-1,3,4-oxadiazol-2-yl)methanone], the AC50 was 0.5 to 1 µM.

Consider `O=C(c1cnn2cc(-c3ccccn3)ccc12)N1CCc2[nH]cnc2[C@@H]1c1cc2ccccn2n1` [Example 1417, (R)-(4-(pyrazolo[1,5-a]pyridin-2-yl)-6,7-dihydro-1H-imidazo[4,5-c]pyridin-5(4H)-yl)(6-(pyridin-2-yl)pyrazolo[1,5-a]pyridin-3-yl)methanone], for which the AC50 lay within 1 to 5 µM.

On to `CC(C)(C)c1nnc(C(=O)N2CCc3[nH]cnc3[C@@H]2c2cc3cccc(C(F)F)n3n2)o1` [Example 1418, (R)-(5-(tert-butyl)-1,3,4-oxadiazol-2-yl)(4-(7-(difluoromethyl)pyrazolo[1,5-a]pyridin-2-yl)-6,7-dihydro-1H-imidazo[4,5-c]pyridin-5(4H)-yl)methanone], for which the AC50 was 1 to 5 µM.

As to `O=C(c1nnc(-c2ccccn2)o1)N1CCc2[nH]cnc2[C@H]1c1cc2cccc(C(F)F)n2n1` [Example 1421, (S)-(4-(7-(difluoromethyl)pyrazolo[1,5-a]pyridin-2-yl)-6,7-dihydro-1H-imidazo[4,5-c]pyridin-5(4H)-yl)(5-(pyridin-2-yl)-1,3,4-oxadiazol-2-yl)methanone], the AC50 is less than 0.5 µM.

For `O=C(c1nnc(-c2cccnc2)o1)N1CCc2[nH]cnc2[C@H]1c1cc2c(C(F)F)cccn2n1` [Example 1422, (S)-(4-(4-(difluoromethyl)pyrazolo[1,5-a]pyridin-2-yl)-6,7-dihydro-1H-imidazo[4,5-c]pyridin-5(4H)-yl)(5-(pyridin-3-yl)-1,3,4-oxadiazol-2-yl)methanone], the AC50 is less than 0.5 µM.

For the molecule `COc1ccc(-c2nnc(C(=O)N3CCc4[nH]cnc4[C@@H]3c3cc4c(C(F)F)cccn4n3)o2)nc1` [Example 1425, (R)-(4-(4-(difluoromethyl)pyrazolo[1,5-a]pyridin-2-yl)-6,7-dihydro-1H-imidazo[4,5-c]pyridin-5(4H)-yl)(5-(5-methoxypyridin-2-yl)-1,3,4-oxadiazol-2-yl)methanone], the AC50 was 1 to 5 µM.
